Data on two compounds can be found in patent publication US20210221866A1, “PROTEASE-RESISTANT LIPIDATED GLP-1 ANALOGS” (MEDIMMUNE LIMITED, priority 2015, published 2021).

Series [1] concerns the target porcine pancreatic trypsin (Sus scrofa, UniProt P00761). Description: Proteolytic resistance to trypsin (% remaining intact peptide, RP-HPLC AUC). The following applies: t = 0; 37° C., pH 7.8. In kind it is in vitro ADME.
Description: Trypsin: Lyophilized porcine pancreatic trypsin (Sigma: T1426) was reconstituted to afford a solution of 100 μg/mL (˜300 units/mL) in assay buffer (50 mM Tris, 10 mM CaCl2), 150 mM NaCl, 1 mM HCl, adjusted to pH 7.8) to give the enzyme stock solution. […] Ratio enzyme (units):peptide (μmoles) ˜1:11. […] Ratio enzyme (units):peptide (μ moles) ˜1.2:1.
Lyophilized porcine pancreatic trypsin (Sigma: T7409) was reconstituted to 200 μg/mL (˜300 units/mL) in assay buffer (50 mM Tris, 10 mM CaCl2), 150 mM NaCl, 1 mM HCl, adjusted to pH 7.8) to give the enzyme stock solution. […] 15 μL aliquots (˜15 μg initial peptide) of the peptide-enzyme mixture were periodically withdrawn (t=0, 30 mins, 1 hr, 2 hr, 4 hr, 8 hr, 24 hr) and quenched immediately by addition to an equal volume (15 μL) of 5% TFA (v/v) in 1:1 water/acetonitrile to arrest proteolytic activity. 20 μL aliquots (˜10 μg initial peptide) were analysed by LC/MS and/or analytical RP-HPLC as follows: LC/MS method: Agilent Polaris C8-A column (4.6×100 mm, 3 micron) eluted with a linear binary gradient of 10-90% MeCN (0.1% TFA v/v) in water (0.1% TFA v/v) over 30 mins at 1.5 mL min^−1 at ambient temperature with detection by both UV absorption at 210 nm and ionization using a Waters 3100 mass detector (ESI^+ mode). Peptide fragments deriving from enzymatic hydrolysis were identified by molecular weight, allowing location of the site of cleavage. Analytical RP-HPLC method: Agilent Polaris C8-A column (4.6×100 mm, 3 micron) eluted with a linear binary gradient of 10-90% MeCN (0.1% TFA v/v) in water (0.1% TFA v/v) over either 10 or 15 mins at 1.5 mL min^−1 at 40° C. with detection by UV absorption at 210 nm. Manual integration (AUC) allowed estimation of remaining intact peptide over the time course of the experiment.
Lyophilized porcine pancreatic trypsin (Sigma: T7409) was reconstituted to 200 μg/mL (˜300 units/mL) in assay buffer (50 mM Tris, 10 mM CaCl2), 150 mM NaCl, 1 mM HCl, adjusted to pH 7.8) to give the enzyme stock solution. […] 25 μL aliquots (˜17 μg initial peptide) of the peptide-enzyme mixture were periodically withdrawn (t=0, 30 mins, 1 hr, 2 hr, 4 hr, 8 hr, 24 hr) and quenched immediately by addition to an equal volume (25 μL) of 5% TFA (v/v) in 1:1 water/acetonitrile to arrest proteolytic activity. 25 μL aliquots (˜8 μg initial peptide) were analysed by LC/MS and/or analytical RP-HPLC as follows: LC/MS method: Agilent Polaris C8-A column (4.6×100 mm, 3 micron) eluted with a linear binary gradient of 10-90% MeCN (0.1% TFA v/v) in water (0.1% TFA v/v) over 30 mins at 1.5 mL min^−1 at ambient temperature with detection by both UV absorption at 210 nm and ionization using a Waters 3100 mass detector (ESI^+ mode). Peptide fragments deriving from enzymatic hydrolysis were identified by molecular weight, allowing location of the site of cleavage. Analytical RP-HPLC method: Agilent Polaris C8-A column (4.6×100 mm, 3 micron) eluted with a linear binary gradient of 10-90% MeCN (0.1% TFA v/v) in water (0.1% TFA v/v) over either 10 or 15 mins at 1.5 mL min^−1 at 40° C. with detection by UV absorption at 210 nm. Manual integration (AUC) allowed estimation of remaining intact peptide over the time course of the experiment.
For series [2], the target named is T1, human glucose-dependent insulinotropic peptide receptor (GIPR) (Homo sapiens, UniProt P48546).
T1 construct: expressed in transfected cells; host or cells: HEK293 cells or CHO cells
T1 sequence (P48546 22-466): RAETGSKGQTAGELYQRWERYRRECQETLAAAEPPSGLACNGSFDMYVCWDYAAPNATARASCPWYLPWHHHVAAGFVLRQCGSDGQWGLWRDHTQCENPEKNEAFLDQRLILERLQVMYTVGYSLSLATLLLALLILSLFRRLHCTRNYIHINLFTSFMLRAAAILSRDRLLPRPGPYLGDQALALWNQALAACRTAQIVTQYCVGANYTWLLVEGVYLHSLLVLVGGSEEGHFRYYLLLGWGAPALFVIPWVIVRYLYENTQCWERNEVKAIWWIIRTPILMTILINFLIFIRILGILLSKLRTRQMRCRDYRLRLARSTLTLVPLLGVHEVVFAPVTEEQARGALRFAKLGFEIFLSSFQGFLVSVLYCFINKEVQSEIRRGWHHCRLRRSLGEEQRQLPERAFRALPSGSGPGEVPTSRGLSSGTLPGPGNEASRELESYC
Description: cAMP assay, human GIPR cells. The following applies: Table 9, bis-lipidated peptides. It is filed as cell-based. The method, boiled down: (§1)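 Peptide-stimulated cAMP measured by two-step HTRF after a 30 min room-temperature incubation with receptor-expressing cells (hGLP-1R, hGIPR at 1×10^5 cells/ml; hGCGR at 2×10^5 cells/ml). Duplicate dilutions; EC50 from 4-parameter logistic fit of % Delta F.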
(In general: Changes in cAMP serve as a functional read-out for many G protein-coupled receptors.)

In series [3] the target is T2, porcine pancreatic pepsin (Sus scrofa, UniProt P00791).
T2 construct: purchased Sigma P7012
T2 sequence (P00791 60-385): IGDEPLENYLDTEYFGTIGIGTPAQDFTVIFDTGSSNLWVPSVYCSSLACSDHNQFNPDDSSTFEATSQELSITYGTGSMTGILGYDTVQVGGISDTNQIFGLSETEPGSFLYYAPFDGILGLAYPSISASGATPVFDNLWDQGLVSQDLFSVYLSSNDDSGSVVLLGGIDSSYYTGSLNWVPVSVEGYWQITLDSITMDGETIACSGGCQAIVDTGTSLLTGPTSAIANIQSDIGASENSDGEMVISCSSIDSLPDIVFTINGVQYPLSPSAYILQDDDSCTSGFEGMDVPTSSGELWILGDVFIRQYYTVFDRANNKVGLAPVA
Description: Proteolytic resistance to pepsin (% remaining intact peptide, RP-HPLC AUC). To be noted: t = 0; 37° C., pH 2.0. It is filed as in vitro ADME. As for the experimental part: Pepsin: Lyophilized porcine pancreatic pepsin (Sigma: P7012) was reconstituted to afford a solution of 200 μg/mL (˜500 units/mL) in assay buffer (0.1 M HCl, pH 2.0) to give the enzyme stock solution. […] Ratio enzyme (units):peptide (moles) ˜1:6. […] Ratio enzyme (units):peptide (μmoles) ˜2:1.
Lyophilized porcine pancreatic pepsin (Sigma: P7012) was reconstituted to […] (˜500 units/mL) in assay buffer ([…], pH 2.0) to give the enzyme stock solution.

For series [4], the system named is FASSIF/Pancreatin® activated with 100 μg/mL human enterokinase. Briefly: Proteolytic resistance to FASSIF/Pancreatin following full zymogen activation with enterokinase. The following applies: t = 0; 37° C. It is filed as in vitro ADME. The method, then: A fresh suspension of FASSIF/P (Fasted-State Simulated Intestinal Fluid+USP Pancreatin®) was prepared according to that described by Galia, Nicolaides, Hörter, Lobenberg, Reppas and Dressman: Pharm. […] To the resulting preparation was added human enterokinase (100 μg/mL) to ensure the potential for full zymogen activity of the mixture which was used immediately without storage. Peptides for evaluation (1.0 mg, ˜250 nmoles) were initially dissolved in pre-warmed FASSIF without Pancreatin® (200 μL) to which was added pre-warmed fresh FASSIF/Pancreatin® ([…]) to initiate potential digestion. Following momentary vortexing of the Eppendorf reaction tube the mixture was incubated at 37° C. in a thermostatic waterbath for the duration of the experiment. 25 μL aliquots of the co-incubated peptide-enzyme mixture were periodically withdrawn (t=0, 5 m, 10 m, 15 m, 30 m, 1 h, 2 h) and quenched immediately by addition to a solution of 10% TFA in 1:1 water/acetonitrile (75 μL) to arrest proteolytic activity.

The test system of series [5] is recombinant α-chymotrypsin. Briefly: Proteolytic resistance to α-chymotrypsin (% remaining intact peptide, RP-HPLC AUC). The following applies: t = 0; 37° C., pH 7.8.
Description: (§3) Ratio enzyme (units):peptide (μmoles) ˜1:33. […] Ratio enzyme (units):peptide (μmoles) ˜1:2.5.
(§4) 15 μL aliquots (˜15 μg initial peptide) of the peptide-enzyme mixture are periodically withdrawn (t=0, 30 mins, 1 hr, 2 hr, 4 hr, 8 hr, 24 hr) and quenched immediately by addition to an equal volume (15 μL) of 5% TFA (v/v) in 1:1 water/acetonitrile to arrest proteolytic activity. 20 μL aliquots (˜10 μg initial peptide) are analysed by LC/MS and/or analytical RP-HPLC as follows: LC/MS method: Agilent Polaris C8-A column (4.6×100 mm, 3 micron) elutes with a linear binary gradient of 10-90% MeCN (0.1% TFA v/v) in water (0.1% TFA v/v) over 30 mins at 1.5 mL min^−1 at ambient temperature with detection by both UV absorption at 210 nm and ionization using a Waters 3100 mass detector (ESI^+ mode). Peptide fragments deriving from enzymatic hydrolysis are identified by molecular weight, allowing location of the site of cleavage. Analytical RP-HPLC method: Agilent Polaris C8-A column (4.6×100 mm, 3 micron) elutes with a linear binary gradient of 10-90% MeCN (0.1% TFA v/v) in water (0.1% TFA v/v) over either 10 or 15 mins at 1.5 mL min^−1 at 40° C. with detection by UV absorption at 210 nm. Manual integration (AUC) allows estimation of remaining intact peptide over the time course of the experiment.
(§5) 25 μL aliquots (˜6 μg initial peptide) are analysed by LC/MS and/or analytical RP-HPLC as follows: LC/MS method: Agilent Polaris C8-A column (4.6×100 mm, 3 micron) elutes with a linear binary gradient of 10-90% MeCN (0.1% TFA v/v) in water (0.1% TFA v/v) over 30 mins at 1.5 mL min^−1 at ambient temperature with detection by both UV absorption at 210 nm and ionization using a Waters 3100 mass detector (ESI±mode). Peptide fragments deriving from enzymatic hydrolysis are identified by molecular weight, allowing location of the site of cleavage. Analytical RP-HPLC method: Agilent Polaris C8-A column (4.6×100 mm, 3 micron) elutes with a linear binary gradient of 10-90% MeCN (0.1% TFA v/v) in water (0.1% TFA v/v) over either 10 or 15 mins at 1.5 mL min^−1 at 40° C. with detection by UV absorption at 210 nm. Manual integration (AUC) allows estimation of remaining intact peptide over the time course of the experiment.
Test in series [6]: as above
Description: as §3, §4, §5
To be noted: recombinant α-chymotrypsin in assay buffer, pH 7.8.

Series [7] has as its target T3, human glucagon receptor (GCGR) (Homo sapiens, UniProt P47871).
T3 construct: expressed in transfected cells; host or cells: HEK293 cells or CHO cells
Briefly: cAMP assay, human GCGR cells. To be noted: Table 9, bis-lipidated peptides. It is filed as cell-based. The method, boiled down: as §1

A further series deals with T4, recombinant Neprilysin (Homo sapiens, UniProt P08473).
T4 construct: purchased R&D Systems 1182-ZNC-010
T4 sequence (P08473 whole entry): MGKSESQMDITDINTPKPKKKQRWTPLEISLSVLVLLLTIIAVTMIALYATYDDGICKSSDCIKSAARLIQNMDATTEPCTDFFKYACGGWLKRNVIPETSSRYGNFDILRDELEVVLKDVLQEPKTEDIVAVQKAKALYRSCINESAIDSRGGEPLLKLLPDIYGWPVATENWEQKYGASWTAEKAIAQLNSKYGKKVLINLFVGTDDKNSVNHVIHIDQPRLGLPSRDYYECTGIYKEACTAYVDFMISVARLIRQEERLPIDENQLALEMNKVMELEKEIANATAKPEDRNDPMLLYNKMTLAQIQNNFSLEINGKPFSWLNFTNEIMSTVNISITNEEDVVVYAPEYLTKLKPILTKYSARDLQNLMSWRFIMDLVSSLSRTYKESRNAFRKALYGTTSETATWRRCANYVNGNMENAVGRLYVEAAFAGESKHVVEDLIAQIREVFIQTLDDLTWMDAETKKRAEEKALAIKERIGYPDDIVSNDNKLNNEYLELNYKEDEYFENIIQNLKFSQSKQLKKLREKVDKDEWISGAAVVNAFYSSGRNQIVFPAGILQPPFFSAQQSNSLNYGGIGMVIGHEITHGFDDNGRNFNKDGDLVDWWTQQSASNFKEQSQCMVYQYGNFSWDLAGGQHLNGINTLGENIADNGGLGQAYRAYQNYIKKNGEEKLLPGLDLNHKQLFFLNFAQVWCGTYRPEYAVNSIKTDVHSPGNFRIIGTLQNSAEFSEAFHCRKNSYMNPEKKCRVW
Description: Proteolytic resistance to neprilysin (% remaining peptide, RP-HPLC AUC). The following applies: t = 0 (baseline); 37° C., pH 8.3; enzyme:peptide ~1:33 for non-lipidated, ~1:2.5 for lipidated peptides. In kind it is in vitro ADME.

The subject of series [8] is FASSIF/P (Fasted-State Simulated Intestinal Fluid+USP Pancreatin®). Description: Proteolytic resistance to fasted-state simulated intestinal fluid (FASSIF/Pancreatin). To be noted: t = 0; 37° C. It is filed as in vitro ADME. As for the experimental part: (§2) A fresh suspension of FASSIF/P (Fasted-State Simulated Intestinal Fluid+USP Pancreatin®) was prepared according to that described by Galia, Nicolaides, Hörter, Lobenberg, Reppas and Dressman: Pharm. Res. 15 (1998) 698-705. The resulting preparation is proteolytically equivalent to ˜375 units/mL (375 kU/L) and was used immediately without storage. Peptides for evaluation (1.0 mg, ˜250 nmoles) were initially dissolved in pre-warmed FASSIF without Pancreatin® (200 μL) to which was added pre-warmed fresh FASSIF/Pancreatin® (100 μL) to initiate potential digestion. Following momentary vortexing of the Eppendorf reaction tube the mixture was incubated at 37° C. in a thermostatic waterbath for the duration of the experiment. 25 μL aliquots of the co-incubated peptide-enzyme mixture were periodically withdrawn (t=0, 5 m, 10 m, 15 m, 30 m, 1 h, 2 h) and quenched immediately by addition to a solution of 10% TFA in 1:1 water/acetonitrile (75 μL) to arrest proteolytic activity.

Test in series [9]: as above
It is filed as in vitro ADME. The following applies: 37° C., read-out: Percentage remaining intact peptide (AUC by RP-HPLC) upon incubation with fasted-state simulated intestinal fluid (FASSIF/P). The method, then: as §2

In series [10] the target is T5, human GLP-1 receptor (GLP-1R) (Homo sapiens, UniProt P43220).
T5 construct: expressed in transfected cells; host or cells: HEK293 cells or CHO cells
T5 sequence (P43220 24-463): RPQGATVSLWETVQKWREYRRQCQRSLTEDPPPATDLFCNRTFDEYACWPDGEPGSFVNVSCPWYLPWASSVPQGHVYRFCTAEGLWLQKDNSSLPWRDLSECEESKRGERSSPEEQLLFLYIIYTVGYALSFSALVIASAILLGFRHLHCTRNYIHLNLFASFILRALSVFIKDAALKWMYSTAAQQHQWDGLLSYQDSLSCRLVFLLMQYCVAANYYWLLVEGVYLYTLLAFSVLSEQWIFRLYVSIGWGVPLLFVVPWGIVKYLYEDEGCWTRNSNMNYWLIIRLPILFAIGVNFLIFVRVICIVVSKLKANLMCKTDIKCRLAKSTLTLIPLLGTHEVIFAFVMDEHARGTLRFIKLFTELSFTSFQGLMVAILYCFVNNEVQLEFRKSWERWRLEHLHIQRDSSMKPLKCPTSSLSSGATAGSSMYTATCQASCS
Briefly: cAMP assay, human GLP-1R cells. In kind it is cell-based. The following applies: Table 9, bis-lipidated peptides. In short, it runs like this: as §1

Where [11] appears, read: first replicate, read-out: Primary assay EC50 GIP-R (n1).
The mark [12] stands for this setting: second replicate, read-out: Primary assay EC50 GIP-R (n2).
Where [13] appears, read: first replicate, read-out: Primary assay EC50 Gluc-R (n1).
[14] abbreviates: second replicate, read-out: Primary assay EC50 Gluc-R (n2).

Read-outs that look alike come from different tables or passages of the source. Numbered stars: 1 amine (or outer) side, 2 acyl side, 3 side chain; on linkers, the order of the positions; unused ones are H or OH. Square brackets hold non-standard residues; d marks the D form. Side chains are listed from the residue outwards. Peptide text beside a SMILES is read from it. * marks the point of attachment. γGlu = O=C(O)[C@H](CCC(=O)[*:2])N[*:1]; αMeF = C[C@](N)(Cc1ccccc1)C(=O)O; αMeK = C[C@](N)(CCCCN)C(=O)O; Lauroyl = CCCCCCCCCCCC(=O)*; αMeS = C[C@](N)(CO)C(=O)O; Nle = CCCC[C@H](N)C(=O)O; AEEA = NCCOCCOCC(=O)O; Aib = CC(C)(N)C(=O)O

T3 sequence (P47871 26-477): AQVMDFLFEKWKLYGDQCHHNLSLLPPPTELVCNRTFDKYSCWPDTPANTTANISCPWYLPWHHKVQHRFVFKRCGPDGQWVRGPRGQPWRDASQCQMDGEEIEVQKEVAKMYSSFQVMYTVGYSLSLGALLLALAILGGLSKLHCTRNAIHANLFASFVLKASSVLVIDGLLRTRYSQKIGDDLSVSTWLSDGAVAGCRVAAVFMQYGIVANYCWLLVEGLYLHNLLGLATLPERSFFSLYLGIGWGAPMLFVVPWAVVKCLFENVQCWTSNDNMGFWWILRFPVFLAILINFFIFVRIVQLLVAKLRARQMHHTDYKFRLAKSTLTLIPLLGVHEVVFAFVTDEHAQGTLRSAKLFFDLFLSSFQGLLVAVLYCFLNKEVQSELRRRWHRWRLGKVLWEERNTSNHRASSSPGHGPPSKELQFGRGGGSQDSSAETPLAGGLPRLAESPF
Chain of porcine pancreatic trypsin (P00761 9-231): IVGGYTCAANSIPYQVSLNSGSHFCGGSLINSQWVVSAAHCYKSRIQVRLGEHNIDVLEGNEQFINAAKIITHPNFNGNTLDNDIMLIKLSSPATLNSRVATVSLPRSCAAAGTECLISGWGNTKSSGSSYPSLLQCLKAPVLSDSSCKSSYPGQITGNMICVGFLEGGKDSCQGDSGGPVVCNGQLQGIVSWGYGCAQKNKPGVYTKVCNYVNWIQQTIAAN

What is called EC50 is the midpoint of the concentration-response curve. As for `CCCCCCCCCCCC(=O)N[C@@H](CCC(=O)NCCOCCOCC(=O)NCCOCCOCC(=O)NCCCC[C@H](NC(=O)[C@H](C)NC(=O)[C@@H](NC(=O)[C@H](Cc1ccccc1)NC(=O)[C@H](CCC(=O)O)NC(=O)[C@](C)(CCCCN)NC(=O)[C@H](C)NC(=O)[C@H](C)NC(=O)[C@H](CCC(=O)O)NC(=O)CNC(=O)[C@H](CCC(=O)O)NC(=O)[C@H](CCCCNC(=O)COCCOCCNC(=O)COCCOCCNC(=O)CC[C@H](NC(=O)CCCCCCCCCCC)C(=O)O)NC(=O)[C@H](Cc1ccc(O)cc1)NC(=O)[C@H](CO)NC(=O)[C@](C)(CO)NC(=O)[C@@H](NC(=O)[C@H](CC(=O)O)NC(=O)[C@H](CO)NC(=O)[C@@H](NC(=O)[C@](C)(Cc1ccccc1)NC(=O)[C@H](CO)NC(=O)CNC(=O)[C@H](CCC(=O)O)NC(=O)C(C)(C)NC(=O)[C@@H](N)Cc1c[nH]cn1)[C@@H](C)O)C(C)C)[C@@H](C)CC)C(=O)N[C@H](C(=O)N[C@H](C(=O)N[C@@H](CCC(=O)O)C(=O)NCC(=O)NCC(N)=O)C(C)C)C(C)C)C(=O)O` [compound 269] (H-H[Aib]EGS[αMeF]TSDV[αMeS]SYK([AEEA-AEEA-γGlu-Lauroyl])EGEAA[αMeK]EFIAK([AEEA-AEEA-γGlu-Lauroyl])VVEGG-NH2; N-terminus assumed), the “Percentage remaining intact peptide (AUC by RP-HPLC) upon incubation with trypsin” value in [1] was 100%. Moreover, the half-maximal effective concentration (EC50) in [2] (setting [11]) was no less than 22.8 nM. For the same compound, the EC50 in series [2] (setting [12]) is no less than 22.8 nM. The “Percentage remaining intact peptide (AUC by RP-HPLC) upon incubation with pepsin” value in [3] amounted to 100%. In addition, in series [4], the “Percentage remaining intact peptide (AUC by RP-HPLC) upon incubation with FASSIF activated with 100 μg/mL enterokinase” value was 100%. Also, in [5], the “Percentage remaining intact peptide (AUC by RP-HPLC) upon incubation with α-chymotrypsin” value came out at 100%. Further, in [6], the remaining at 0.5 h amounted to 97.1%, the remaining at 1 h was found to be 95.8%, the remaining at 2 h worked out at 96% and the remaining at 4 h came to 94.2%. For the same compound, in [6], the remaining at 8 h was 92.6% and the remaining at 24 h is 89.4%. Moreover, in series [7] (setting [13]), the concentration for a half-maximal effect (EC50) was no less than 22.8 nM. For the same compound, the half-maximal effective concentration (EC50) in series [7] (setting [14]) was no less than 22.8 nM. The “Percentage remaining peptide (AUC at specified time-point by RP-HPLC) upon incubation with neprilysin, t = 0” value at recombinant Neprilysin turned out to be 100%.
Consider `CCCCCCCCCCCC(=O)N[C@@H](CCC(=O)NCCOCCOCC(=O)NCCOCCOCC(=O)NCCCC[C@H](NC(=O)[C@H](C)NC(=O)[C@@H](NC(=O)[C@H](CCCC)NC(=O)[C@H](CCC(=O)O)NC(=O)[C@](C)(CCCCN)NC(=O)[C@H](C)NC(=O)[C@H](C)NC(=O)[C@H](CCC(=O)O)NC(=O)CNC(=O)[C@H](CCC(=O)O)NC(=O)[C@H](CC(C)C)NC(=O)[C@H](CCCCNC(=O)COCCOCCNC(=O)COCCOCCNC(=O)CC[C@H](NC(=O)CCCCCCCCCCC)C(=O)O)NC(=O)[C@H](CO)NC(=O)[C@](C)(CO)NC(=O)[C@@H](NC(=O)[C@H](CC(=O)O)NC(=O)[C@H](CO)NC(=O)[C@@H](NC(=O)[C@](C)(Cc1ccccc1)NC(=O)[C@H](CO)NC(=O)CNC(=O)[C@H](CCC(=O)O)NC(=O)C(C)(C)NC(=O)[C@@H](N)Cc1c[nH]cn1)[C@@H](C)O)C(C)C)[C@@H](C)CC)C(=O)N[C@H](C(=O)N[C@H](C(=O)N[C@@H](CCC(=O)O)C(=O)NCC(=O)NCC(N)=O)C(C)C)C(C)C)C(=O)O` [compound 407] (H-H[Aib]EGS[αMeF]TSDV[αMeS]SK([AEEA-AEEA-γGlu-Lauroyl])LEGEAA[αMeK]E[Nle]IAK([AEEA-AEEA-γGlu-Lauroyl])VVEGG-NH2; N-terminus assumed), for which the EC50 in series [2] (setting [11]) was no less than 21.5 nM; in series [2] (setting [12]), no less than 21.5 nM; in series [7] (setting [13]) it was no less than 21.5 nM; in series [7] (setting [14]), no less than 21.5 nM; in [10] (mean of n1 and n2, read-out: Primary assay EC50 Mean pM GLP-1R), 2 pM; in series [10] (replicate n2, read-out: Primary assay EC50 GLP-1R n2), 2.01 pM. Also, the “Percentage remaining intact peptide (AUC by RP-HPLC) upon incubation with fasted-state simulated intestinal fluid (FASSIF/P)” value in series [8] was 100%. Besides, in series [9] (t = 5 m), the remaining at 5 min, […] is 86.2%. Also, the remaining at 10 min, […] in series [9] (t = 10 m) is 72.9%. For the same compound, the remaining at 0.25 h, […] in series [9] (t = 15 m) was 60.3%. Moreover, in series [9] (t = 30 m), the remaining at 0.5 h, […] was 36.3%. The remaining at 1 h, […] in series [9] (t = 1 h) was 16.2%. In addition, the remaining at 2 h, […] in series [9] (t = 2 h) is 2.1%.
